Results published in patent US6964952B2, “Therapeutic composition for broad spectrum dermal disease” (Doosan Corporation, priority 2001, dated 2005).

Experiments:
[1] = system: protein kinase C (PKC); assay: Inhibition of protein kinase C in mouse epidermal cell line Pam212; assay type: cell-based; settings: Pam212 cells treated at 100 μM and 400 μM; FIG. 6
Experimental: An anti-inflammation effect of the cream composition according to the invention was evaluated by assessing inhibition of protein kinase C (PKC) in mouse epidermal cell line (Pam212). The cultured epidermal cells at 2×10^7 cells/ml were treated with phytosphingosine or derivatives thereof at final concentrations of 100 μM, and 400 μM. After washing with PBS, the cells were disrupted using a homogenizer and centrifuged. The supernatant was passed through a DE52 column to obtain a fraction containing PKC. To measure the amount of activated PKC in the fractions, 5 μl each of a PKC coactivation 5× buffer, PKC activation 5× buffer, PKC biotinylated peptide substrate and ^32P-ATP mixture were added to a tube. For a negative control, 5 μl each of a PKC coactivation 5× buffer, Control 5× buffer, PKC biotinylated peptide substrate and ^32P-ATP mixture were measured. To the tubes were added 5 μl of respective PKC fractions. The reaction was performed at 30° C. for 5 min. After terminating the reaction by adding a 12.5 μl stop solution, a 10 μl aliquot was dropped on a SAM^2™ membrane. The membrane was washed 1× with 2M NaCl for 30 sec, 3× with 2M NaCl for 2 min, 4× with a solution of 1% H3PO4 and 2M NaCl for 2 min, and 2× with distilled water for 30 sec, followed by drying. Radioactivity was measured to examine a PKC inhibition effect.

[2] = system: full-thickness circular ear wounds; assay: Wound repair in rabbits (6 mm punch wounds in ears); assay type: in vivo, New Zealand White rabbits; settings: rabbit ear wounds; 5, 10, 50 μM, 10 μl every second day; FIG. 3
Experimental: As an experimental animal model, female New Zealand White rabbits (2 kg in body weight) were employed to evaluate the efficacy of phytosphingosine and derivatives thereof on wound healing.
The rabbits were anesthetized with an intramuscular injection of ketamine (3 to 4 mg/kg). After removing hairs and a horny layer (stratum corneum) inside the both ears, 4 full-thickness circular wounds were created in each ear using a 6 mm-punch biopsy. As a control, PBS solution containing 0.1% BSA was applied to the wound regions at an amount of 10 μl every second day. For test groups, a composition comprising lysophosphatidic acid only, a composition comprising sphingolipid long-chain base only, and a composition comprising a combination thereof were applied each at varying concentrations (5 μM, 10 μM and 50 μM) at a volume of 10 μl every second day. The wounds applied with those agents were sealed with Cathreep (Nichiban Co., Japan). On 4th and 8th day after application, the rabbits were sacrificed, and the wound areas were histologically examined.

[3] = system: Langerhans cells; assay: Effect on number of Langerhans cells in skin explant; assay type: cell-based; settings: 1% test sample
Experimental: Langerhans cells play a role in mediating immune response of the skin. Treatment of skin disorders related to a hypersensitive immune response can be accomplished by regulating either the number or the antigen-presenting ability of Langerhans cells. To examine the efficacy of sphingolipid long-chain base on the regulation of the number of Langerhans cells, a test was performed as follows. Each skin explant was applied with a 1% test sample containing sphingolipid.

[4] = system: human skin fibroblasts; assay: Tracing metabolic pathway in human skin fibroblasts (TLC of lipid extracts); assay type: in vitro ADME; settings: 20 μM, 48 hrs
Experimental: Human skin fibroblasts were employed as the cell line for the study. Phytosphingosine, tetraacetyl phytosphingosine, and acetyl phytosphingosine were respectively dissolved in a mixture of ethanol/dodecane, preparing stock solutions at certain concentrations. When the fibroblasts became confluent in 7 cm diameter culture dishes, 20 μM of the respective test samples was added and cultured in a CO2 incubator for 48 hrs. Cells were harvested and treated according to a common extraction method for sphingolipids. Hydrolysis was performed under basic conditions at 37° C. overnight. The samples were passed through a reverse phase column to remove salts. The desalted lipid extracts were subjected to a TLC analysis on Silica gel 60 G plates (Merck, Germany), using chloroform/methanol/concentrated acetic acid (190/9/1) to elute neutral lipids.

[5] = system: human skin fibroblasts; assay type: cell-based

Compound | PKC inhibition effect [1] | Rates of wound healing (%) compared to untreated control group [2] | Efficacy on reducing the number of Langerhans cells (comparison) [3] | Metabolic conversion within the cells [4] | Cytotoxicity relative to other sphingolipid long-chain bases [5]
CCCCCCCCCCCCCC[C@@H](O)[C@@H](O)[C@H](CO)NC(C)=O [N-acetyl phytosphingosine] | excellent PKC inhibition effects |  |  |  | 
CCCCCCCCCCCCCC[C@@H](O)[C@@H](O)[C@@H](N)CO [phytosphingosine] | excellent PKC inhibition effects | highly accelerate the rates of wound healing | greater than that of tetraacetyl phytosphingosine |  | 
lysophosphatidic acid |  | highly accelerate the rates of wound healing |  |  | 
tetraacetyl phytosphingosine | excellent PKC inhibition effects |  |  | converted to C2-phytoceramide | lower cytotoxicity than other sphingolipid long-chain bases
